Like-named read-outs stand apart in the source and are kept apart here.
Key:
[1] = target: Sepiapterin reductase (Homo sapiens, UniProt P35270); experiment: binding to immobilized V16742 (IVA1/IVA2, HeLa lysate, MS)
[2] = target: T1, Isoform 1 of Nicotinamide phosphoribosyltransferase (Homo sapiens, UniProt P43490); experiment: as above
T1 construct: endogenous in cells; host or cells: HeLa S3

[3] = target: T2, ADK (IPI00290279) (Homo sapiens, UniProt P55263); experiment: binding to VI16742 beads (HeLa lysate, SILAC MS)
T2 construct: endogenous in cells; host or cells: HeLa S3 cell lysate
T2 sequence (P55263 whole entry): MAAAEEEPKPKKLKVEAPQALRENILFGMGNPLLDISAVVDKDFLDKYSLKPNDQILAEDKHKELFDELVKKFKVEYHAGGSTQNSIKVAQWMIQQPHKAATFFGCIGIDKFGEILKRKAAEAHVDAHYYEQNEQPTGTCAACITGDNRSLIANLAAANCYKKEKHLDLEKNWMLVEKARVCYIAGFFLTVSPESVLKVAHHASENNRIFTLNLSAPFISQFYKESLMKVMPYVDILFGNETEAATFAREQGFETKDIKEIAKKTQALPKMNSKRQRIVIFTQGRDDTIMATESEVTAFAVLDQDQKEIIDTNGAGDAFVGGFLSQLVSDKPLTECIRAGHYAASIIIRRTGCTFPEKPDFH

[4] = target: T3, Testis expressed sequence 264 protein precursor (Homo sapiens, UniProt Q9Y6I9); experiment: binding to immobilized V16742 (IVA1/IVA2, HeLa lysate, MS)
T3 construct: endogenous in cells; host or cells: HeLa S3
T3 sequence (Q9Y6I9 1-313): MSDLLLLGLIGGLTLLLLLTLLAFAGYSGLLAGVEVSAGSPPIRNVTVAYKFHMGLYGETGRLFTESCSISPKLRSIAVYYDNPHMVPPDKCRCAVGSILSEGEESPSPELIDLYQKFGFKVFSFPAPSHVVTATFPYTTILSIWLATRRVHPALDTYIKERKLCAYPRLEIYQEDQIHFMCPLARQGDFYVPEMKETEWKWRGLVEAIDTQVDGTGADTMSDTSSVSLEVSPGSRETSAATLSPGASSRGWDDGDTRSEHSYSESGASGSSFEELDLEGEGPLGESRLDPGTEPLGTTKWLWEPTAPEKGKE

[5] = target: RPL7 (Homo sapiens, UniProt P18124)
[6] = target: RPL7A (Homo sapiens, UniProt P62424)
[7] = target: p38a (MAPK14, IPI00002857) (Homo sapiens, UniProt Q16539); experiment: gefitinib competition against AX14596 beads (HeLa lysate, SILAC MS); format: binding
Chain of p38a (MAPK14, IPI00002857) (Q16539 whole entry): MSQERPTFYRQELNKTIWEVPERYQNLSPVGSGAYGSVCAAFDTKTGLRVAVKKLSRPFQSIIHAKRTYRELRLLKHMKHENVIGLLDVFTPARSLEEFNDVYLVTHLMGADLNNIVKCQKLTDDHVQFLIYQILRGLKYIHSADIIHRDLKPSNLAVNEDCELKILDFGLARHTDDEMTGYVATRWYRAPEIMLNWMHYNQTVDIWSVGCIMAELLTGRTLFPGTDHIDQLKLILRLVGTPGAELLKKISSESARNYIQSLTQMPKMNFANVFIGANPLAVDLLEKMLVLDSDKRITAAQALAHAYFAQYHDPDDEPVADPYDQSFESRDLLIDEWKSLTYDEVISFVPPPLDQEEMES

[8] = average of two experiments, read-out: Kd Avg

Chain of Sepiapterin reductase (P35270 whole entry, canonical isoform): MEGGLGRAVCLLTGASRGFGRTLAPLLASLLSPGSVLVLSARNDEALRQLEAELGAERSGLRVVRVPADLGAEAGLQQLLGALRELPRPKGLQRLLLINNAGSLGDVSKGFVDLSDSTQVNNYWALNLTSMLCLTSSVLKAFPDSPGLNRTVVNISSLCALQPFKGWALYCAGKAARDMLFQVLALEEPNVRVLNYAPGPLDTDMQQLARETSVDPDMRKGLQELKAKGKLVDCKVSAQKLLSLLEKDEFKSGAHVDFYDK
T1 sequence (P43490 whole entry, canonical isoform): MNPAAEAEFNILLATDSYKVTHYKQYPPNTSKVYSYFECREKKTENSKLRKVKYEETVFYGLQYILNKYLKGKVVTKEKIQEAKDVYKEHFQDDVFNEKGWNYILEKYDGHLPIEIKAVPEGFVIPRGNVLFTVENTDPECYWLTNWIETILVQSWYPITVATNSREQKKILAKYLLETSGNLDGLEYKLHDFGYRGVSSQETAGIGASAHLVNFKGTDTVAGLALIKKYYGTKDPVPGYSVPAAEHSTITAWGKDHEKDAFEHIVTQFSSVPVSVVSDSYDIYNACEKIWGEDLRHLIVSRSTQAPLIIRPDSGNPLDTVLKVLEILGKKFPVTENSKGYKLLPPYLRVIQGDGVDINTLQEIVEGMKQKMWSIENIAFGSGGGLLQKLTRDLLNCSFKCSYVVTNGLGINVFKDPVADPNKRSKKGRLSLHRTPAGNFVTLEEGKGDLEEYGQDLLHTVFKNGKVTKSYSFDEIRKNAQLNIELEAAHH

## CC(C)n1c(=O)ccc2cnc(Nc3ccc(OCCN)cc3)nc21 [V16742]
[1]
  Kd: 58.6 µM
[1]; Kd Avg, Sepiapterin reductase, average of two experiments
  Kd: 93 µM
[1]; Kd, Sepiapterin reductase, Experiment 2
  Kd: 127 µM
[1]; Kd, Sepiapterin reductase, immobilized V16742
  Kd: 93 µM
[1]; Sepiapterin reductase, Experiment 1, 1.87 μM 16742
  Percent bound at various 16742 conc: 2.16%
[1]; Sepiapterin reductase, Experiment 1, 8.74 μM 16742
  Percent bound at various 16742 conc: 2.59%
[1]; Sepiapterin reductase, Experiment 1, 52 μM 16742
  Percent bound at various 16742 conc: 51.84%
[1]; Sepiapterin reductase, Experiment 2, 1.87 μM 16742
  Percent bound at various 16742 conc: 1.04%
[1]; Sepiapterin reductase, Experiment 2, 8.74 μM 16742
  Percent bound at various 16742 conc: 1.52%
[1]; Sepiapterin reductase, Experiment 2, 52 μM 16742
  Percent bound at various 16742 conc: 30.43%
[2]; Experiment 1, 1.87 μM 16742
  Percent bound at various 16742 conc: 2.80%
[2]; Experiment 1, 8.74 μM 16742
  Percent bound at various 16742 conc: 2.70%
[2]; Experiment 1, 52 μM 16742
  Percent bound at various 16742 conc: 54.03%
[2]; Experiment 1, read-out: Kd
  Kd: 54.8 µM
[2]; Experiment 2, 1.87 μM 16742
  Percent bound at various 16742 conc: 2.28%
[2]; Experiment 2, 8.74 μM 16742
  Percent bound at various 16742 conc: 3.40%
[2]; Experiment 2, 52 μM 16742
  Percent bound at various 16742 conc: 41.68%
[2]; Experiment 2, read-out: Kd
  Kd: 80.3 µM
[2]; [8]
  Kd: 67.5 µM
[3]; 5 h vs 2.5 h incubation time
  r (5 h/2.5 h INC. TIME): 1.63
[3]; control beads vs first incubation
  rAVERAGE (CTRL/1 INC): 0.05
[3]; immobilized VI16742
  Ki: 94.2 µM
[3]; second vs first incubation
  rAVERAGE (2 INC/1 INC): 0.64
[4]; Experiment 1, 1.87 μM 16742
  Percent bound at various 16742 conc: 2.22%
[4]; Experiment 1, 8.74 μM 16742
  Percent bound at various 16742 conc: 2.55%
[4]; Experiment 1, 52 μM 16742
  Percent bound at various 16742 conc: 51.05%
[4]; Experiment 1, read-out: Kd
  Kd: 60 µM
[4]; Experiment 2, 1.87 μM 16742
  Percent bound at various 16742 conc: 2.11%
[4]; Experiment 2, 8.74 μM 16742
  Percent bound at various 16742 conc: 1.91%
[4]; Experiment 2, 52 μM 16742
  Percent bound at various 16742 conc: 24.69%
[4]; Experiment 2, read-out: Kd
  Kd: 165 µM
[4]; [8]
  Kd: 113 µM

## COc1cc2ncnc(Nc3ccc(F)c(Cl)c3)c2cc1OCCCN1CCOCC1 [gefitinib]
[5]
  rAVERAGE (10 nM/0 nM Gef.): 0.84
  rAVERAGE (100 nM/0 nM Gef.): 1.08
  rAVERAGE (1000 nM/0 nM Gef.): 0.86
  rAVERAGE (10000 nM/0 nM Gef.): 0.98
[6]
  rAVERAGE (10 nM/0 nM Gef.): 0.92
  rAVERAGE (100 nM/0 nM Gef.): 0.88
  rAVERAGE (1000 nM/0 nM Gef.): 0.59
  rAVERAGE (10000 nM/0 nM Gef.): 0.79
[7]
  rAVERAGE (10 nM/0 nM Gef.): 0.88
  rAVERAGE (100 nM/0 nM Gef.): 1.04
  rAVERAGE (1000 nM/0 nM Gef.): 0.92
  rAVERAGE (10000 nM/0 nM Gef.): 0.64
